The target in this assay is T1, CYP2C9 (Homo sapiens, UniProt P11712).
T1 construct: Human liver microsome (20 mg protein/mL, 5 μL, Xenotech LLC, purchased from Lenexa KS); tissue Xenotech LLC; host or cells: human liver microsome
T1 sequence (P11712 whole entry): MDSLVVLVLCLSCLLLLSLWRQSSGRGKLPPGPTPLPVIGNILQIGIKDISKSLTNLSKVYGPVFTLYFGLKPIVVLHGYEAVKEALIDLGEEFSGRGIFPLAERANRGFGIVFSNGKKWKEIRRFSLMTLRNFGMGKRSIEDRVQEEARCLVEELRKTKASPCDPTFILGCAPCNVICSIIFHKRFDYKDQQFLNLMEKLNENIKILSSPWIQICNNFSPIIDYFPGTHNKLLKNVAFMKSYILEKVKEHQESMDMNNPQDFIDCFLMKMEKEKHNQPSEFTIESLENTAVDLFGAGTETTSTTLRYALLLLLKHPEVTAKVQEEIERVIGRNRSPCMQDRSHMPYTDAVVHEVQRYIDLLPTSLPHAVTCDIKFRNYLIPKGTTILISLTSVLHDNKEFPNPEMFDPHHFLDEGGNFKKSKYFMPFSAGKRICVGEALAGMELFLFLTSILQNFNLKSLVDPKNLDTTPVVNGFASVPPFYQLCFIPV
Put plainly: CYP inhibitory test using human liver microsome. The format is in vitro ADME. The conditions noted are these: model substrate diclofenac, 37° C. 10 min, read-out: CYP2C9 inhibition IC50. How it is done: Human liver microsome (20 mg protein/mL, 5 μL, Xenotech LLC, purchased from Lenexa KS) was suspended in 100 mM potassium phosphate buffer (70 μL, pH 7.4), mixed with a solution (0.5 μL) of the Example compound dissolved in DMSO and preincubated at 37° C. for 5 min. NADPH producing system coenzyme solution (β-nicotinamide adenine dinucleotide phosphate: 5.2 mM, D-glucose-6-phosphate: 13.2 mM, magnesium chloride: 13.2 mM, glucose-6-phosphate dehydrogenase: 1.8 U/mL) 25 μL, and a model substrate (CYP3A4: midazolam 1 mM, CYP2D6: bufuralol 1 mM, CYP2C9: diclofenac 2 mM) 0.5 μL dissolved in DMSO were added to start the reaction. After incubation at 37° C. for 10 min., acetonitrile (200 μL) containing an internal standard substance (propranolol 1 μM) was added and the mixture was centrifuged (room temperature, 3000 rpm, 20 min). The amount of the metabolite produced from each model substrate in the supernatant was measured by high performance liquid chromatography/mass spectrometry (LC/MS/MS) and each CYP enzyme activity was determined. The concentration showing 50% inhibition (IC50) was calculated relative to the enzyme activity without addition of Example compound (DMSO 0.5 μL added) as 100%.
Background: Liver microsomes are vesicles of endoplasmic reticulum, rich in cytochrome P450 enzymes.
By IC50 is commonly meant the concentration needed to halve the response being measured. For `O=C(c1cc(Cl)c(O)c(Cl)c1)N1CCOc2ccc(S(=O)(=O)N3CCCC3)cc21` [Example 33, (3,5-dichloro-4-hydroxyphenyl)-[6-(pyrrolidine-1-sulfonyl)-2,3-dihydrobenzo[1,4]oxazin-4-yl]-methanone], the IC50 came out at 4 µM. To `CCNS(=O)(=O)c1ccc2c(c1)N(C(=O)c1cc(Cl)c(O)c(Cl)c1)CCO2` [Example 34, 4-(3,5-dichloro-4-hydroxybenzoyl)-3,4-dihydro-2H-benzo[1,4]oxazine-6-sulfonic acid ethylamide] belongs 11 µM; to `CN(C)S(=O)(=O)c1ccc2c(c1)N(C(=O)c1cc(Cl)c(O)c(Cl)c1)CCO2` [Example 35, 4-(3,5-dichloro-4-hydroxybenzoyl)-3,4-dihydro-2H-benzo[1,4]oxazine-6-sulfonic acid dimethylamide], 14 µM.

For the molecule `O=C(c1cc(Cl)c(O)c(Cl)c1)N1CCOc2cccnc21` [Example 36, (3,5-dichloro-4-hydroxyphenyl)-(2,3-dihydropyrido[3,2-b][1,4]oxazin-4-yl)-methanone], the IC50 was determined as 16 µM.

On to `O=C1CCN(C(=O)c2cc(Cl)c(O)c(Cl)c2)c2ccccc2N1` [Example 37, 5-(3,5-dichloro-4-hydroxybenzoyl)-1,3,4,5-tetrahydrobenzo[b][1,4]diazepin-2-one], for which the IC50 was over 50 µM. To `O=C(c1cc(Cl)cc(Cl)c1O)N1CCOc2ccccc21` [Example 38, (3,5-dichloro-2-hydroxyphenyl)-(2,3-dihydrobenzo[1,4]oxazin-4-yl)-methanone] belongs 5 µM; to `O=C(c1ccc(O)c(C(F)(F)F)c1)N1CCOc2ccccc21` [Example 39, (2,3-dihydrobenzo[1,4]oxazin-4-yl)-(4-hydroxy-3-trifluoromethylphenyl)-methanone], 21 µM. To `COc1cc(C(=O)N2CCOc3ccccc32)cc(Cl)c1O` [Example 40, (3-chloro-4-hydroxy-5-methoxyphenyl)-(2,3-dihydrobenzo[1,4]oxazin-4-yl)-methanone] belongs over 50 µM; to `O=C(c1ccc(Cl)c(O)c1)N1CCOc2ccccc21` [Example 41, (4-chloro-3-hydroxyphenyl)-(2,3-dihydrobenzo[1,4]oxazin-4-yl)-methanone], over 50 µM. To `O=C(c1cc(Cl)nc(Cl)c1)N1CCOc2ccccc21` [Example 42, (2,6-dichloropyridin-4-yl)-(2,3-dihydrobenzo[1,4]oxazin-4-yl)-methanone] belongs over 50 µM; to `O=C(c1ccc([N+](=O)[O-])cc1)N1CCOc2ccccc21` [Example 43, (2,3-dihydrobenzo[1,4]oxazin-4-yl)-(4-nitrophenyl)-methanone], over 50 µM; to `O=C(c1cc(Cl)c(O)c(Cl)c1)N1CCOc2ccc(F)cc21` [Example 44, (3,5-dichloro-4-hydroxyphenyl)-(6-fluoro-2,3-dihydrobenzo[1,4]oxazin-4-yl)-methanone], 31 µM. As to `O=C(O)c1ccccc1C(=O)N1CCOc2ccccc21` [Example 45, 2-(2,3-dihydrobenzo[1,4]oxazine-4-carbonyl)benzoic acid], the 50% inhibitory concentration (IC50) is over 50 µM. To `COC(=O)c1ccc(C(=O)N2CCOc3ccccc32)cc1` [Example 46, methyl 4-(2,3-dihydrobenzo[1,4]oxazine-4-carbonyl)benzoate] belongs over 50 µM; to `O=C(O)c1ccc(C(=O)N2CCOc3ccccc32)cc1` [Example 47, 4-(2,3-dihydrobenzo[1,4]oxazine-4-carbonyl)benzoic acid], over 50 µM; to `COC(=O)c1cccc(C(=O)N2CCOc3ccccc32)c1` [Example 48, methyl 3-(2,3-dihydrobenzo[1,4]oxazine-4-carbonyl)benzoate], over 50 µM. For `O=C(O)c1cccc(C(=O)N2CCOc3ccccc32)c1` [Example 49, 3-(2,3-dihydrobenzo[1,4]oxazine-4-carbonyl)benzoic acid] the value was over 50 µM; for `O=C(c1cc(Cl)c(O)c(Cl)c1O)N1CCOc2ccccc21` [Example 50, (3,5-dichloro-2,4-dihydroxyphenyl)-(2,3-dihydrobenzo[1,4]oxazin-4-yl)-methanone], 15 µM; for `O=C(c1cc(Cl)c(O)c(Cl)c1)N1CCOc2ccc(Cl)cc21` [Example 51, (6-chloro-2,3-dihydrobenzo[1,4]oxazin-4-yl)-(3,5-dichloro-4-hydroxyphenyl)-methanone], 16 µM.

`O=C(c1cc(Cl)c(O)c(Cl)c1)N1CCOc2cc(Cl)ccc21` [Example 52, (7-chloro-2,3-dihydrobenzo[1,4]oxazin-4-yl)-(3,5-dichloro-4-hydroxyphenyl)-methanone]: the IC50 came to 11 µM. Take `O=C(c1cc(Cl)c(O)c(Cl)c1)N1CCN(C(=O)c2cc(Cl)c(O)c(Cl)c2)c2ccccc21` [Example 53, [4-(3,5-dichloro-4-hydroxybenzoyl)-3,4-dihydro-2H-quinoxalin-1-yl]-(3,5-dichloro-4-hydroxyphenyl)-methanone]: the IC50 was 6 µM.

As to `O=C(c1cc(Cl)c(O)c(Cl)c1)N1CCNc2ccccc21` [Example 54, (3,5-dichloro-4-hydroxyphenyl)-(3,4-dihydro-2H-quinoxalin-1-yl)-methanone], the IC50 turned out to be 48 µM.

In the case of `COC(=O)c1ccc2c(c1)N(C(=O)c1cc(Cl)c(O)c(Cl)c1)CCO2` [Example 55, methyl 4-(3,5-dichloro-4-hydroxybenzoyl)-3,4-dihydro-2H-benzo[1,4]oxazine-6-carboxylate], the IC50 came to 19 µM. In the case of `O=C(c1cc(Cl)c(O)c(Cl)c1)N1CCOc2ccc(CO)cc21` [Example 56, (3,5-dichloro-4-hydroxyphenyl)-(6-hydroxymethyl-2,3-dihydrobenzo[1,4]oxazin-4-yl)-methanone], the 50% inhibitory concentration (IC50) is over 50 µM.

Consider `O=C(O)c1ccc2c(c1)N(C(=O)c1cc(Cl)c(O)c(Cl)c1)CCO2` [Example 57, 4-(3,5-dichloro-4-hydroxybenzoyl)-3,4-dihydro-2H-benzo[1,4]oxazine-6-carboxylic acid], for which the IC50 is over 50 µM. In the case of `COC(=O)c1cccc2c1N(C(=O)c1cc(Cl)c(O)c(Cl)c1)CCO2` [Example 58, methyl 4-(3,5-dichloro-4-hydroxybenzoyl)-3,4-dihydro-2H-benzo[1,4]oxazine-5-carboxylate], the IC50 worked out at 21 µM. To `COC(=O)c1ccc2c(c1)OCCN2C(=O)c1cc(Cl)c(O)c(Cl)c1` [Example 59, methyl 4-(3,5-dichloro-4-hydroxybenzoyl)-3,4-dihydro-2H-benzo[1,4]oxazine-7-carboxylate] belongs 8 µM.

Take `O=C(O)c1ccc2c(c1)OCCN2C(=O)c1cc(Cl)c(O)c(Cl)c1` [Example 60, 4-(3,5-dichloro-4-hydroxybenzoyl)-3,4-dihydro-2H-benzo[1,4]oxazine-7-carboxylic acid]: the IC50 was over 50 µM. To `COC(=O)c1cccc2c1OCCN2C(=O)c1cc(Cl)c(O)c(Cl)c1` [Example 61, methyl 4-(3,5-dichloro-4-hydroxybenzoyl)-3,4-dihydro-2H-benzo[1,4]oxazine-8-carboxylate] belongs 43 µM; to `O=C(O)c1cccc2c1OCCN2C(=O)c1cc(Cl)c(O)c(Cl)c1` [Example 62, 4-(3,5-dichloro-4-hydroxybenzoyl)-3,4-dihydro-2H-benzo[1,4]oxazine-8-carboxylic acid], over 50 µM; to `O=C(c1cc(Cl)cc(Cl)c1)N1CCOc2ccccc21` [Example 63, (3,5-dichlorophenyl)-(2,3-dihydrobenzo[1,4]oxazin-4-yl)-methanone], over 50 µM. For `O=C(c1cc(Cl)c(O)c(Cl)c1)N1c2ccccc2Oc2ccccc21` [Example 64, (3,5-dichloro-4-hydroxyphenyl)-phenoxazin-10-ylmethanone] the value was 6 µM; for `O=C(c1cc(Cl)c(O)c(Cl)c1)N1CCOc2ccc(-c3ccccc3)cc21` [Example 65, (3,5-dichloro-4-hydroxyphenyl)-(6-phenyl-2,3-dihydrobenzo[1,4]oxazin-4-yl)-methanone], 14 µM; for `Cc1cc(C)c2c(c1)N(C(=O)c1cc(Cl)c(O)c(Cl)c1)CCO2` [Example 66, (3,5-dichloro-4-hydroxyphenyl)-(6,8-dimethyl-2,3-dihydrobenzo[1,4]oxazin-4-yl)-methanone], 12 µM. To `O=C(c1cc(Cl)c(O)c(Cl)c1)N1CCOc2ccc([N+](=O)[O-])cc21` [Example 67, (3,5-dichloro-4-hydroxyphenyl)-(6-nitro-2,3-dihydrobenzo[1,4]oxazin-4-yl)-methanone] belongs 49 µM. As to `Nc1ccc2c(c1)N(C(=O)c1cc(Cl)c(O)c(Cl)c1)CCO2` [Example 68, (6-amino-2,3-dihydrobenzo[1,4]oxazin-4-yl)-(3,5-dichloro-4-hydroxyphenyl)-methanone], the IC50 was 27 µM.

As to `O=C(c1cc(Br)c(O)c(Br)c1)N1CCOc2ccc([N+](=O)[O-])cc21` [Example 69, (3,5-dibromo-4-hydroxyphenyl)-(6-nitro-2,3-dihydrobenzo[1,4]oxazin-4-yl)-methanone], the IC50 amounted to 21 µM.

As for `O=C(c1cc(Cl)c(O)c(Cl)c1)N1CCOc2cc([N+](=O)[O-])ccc21` [Example 70, (3,5-dichloro-4-hydroxyphenyl)-(7-nitro-2,3-dihydrobenzo[1,4]oxazin-4-yl)-methanone], the IC50 is 20 µM.

The record behind these values is US20070010670A1, “Nitrogen-containing fused ring compounds and use thereof” (Japan Tobacco Inc., priority 2004, published 2007).
